{"source": "patent US20060183733A1", "about": "“Treating microvasculature diseases with acetyl cholinesterase inhibitors” (priority 2005, published 2006)", "key": {"[1]": {"system": "patients with peripheral vascular disease and diabetes mellitus", "test": "Patient case histories: microvascular disease / vascular insufficiency", "type": "in vivo, human", "details": "for side effects: donepizil 5-10 mg daily", "text": "In summary, vascular insufficiency from diabetes is associated with compromise of the microvascular circulation. Treatment with an effective dose of an acetylcholinesterase inhibitor raises the relative concentration of acetylcholine promoting vasodilitation of the microcirculation (end arterioles) through stimulation of neuronal and non-neuronal acetylcholine receptors in the intima of the blood vessels. The beneficial effects of promoting vasodilitation and enhanced tissue perfusion correcting the dystrophic changes and alleviating ischemic pain and ulcers is readily apparent in this series of patients.\nThe present invention provides a method for the medical management of peripheral vascular disease. The management of peripheral vascular disease with acetylcholinesterase inhibitor addresses the central dilemma in vascular perfusion of the lower extremities. By increasing the relative concentration of acetylcholine, the parasympthetic nervous system is enhanced, improving blood flow at the tissue level by relaxation of the small end arterioles and improving perfusion therefore decreasing vascular edema, enhancing resolution of trohpic ulcers and alleviating rest pain and claudication complaints. The parasympathetic nervous system controls vascular beds in the small arterioles and by increasing the available acetylcholine, dilatation occurs and blood flow improves. By treatment with acetylcholinesterase inhibitors the end results in improved vascular blood supply, decreased congestion at the small arterioles level and improved blood supply. This is particularly necessary in diabetic patients. The presence of non-neuronal acetylcholine receptors with the intima of blood vessels at the microvascular level represents a second physiologic mechanism whereby dilatation of small blood vessels is facilitated by the use of an acetylcholinesterase inhibitor. This latter mechanism owing to the sensitive nature of the cholinesterases associated with the non neuronal acetylcholine system provides sustained cholinergic activity impacting the microvascular circulation and improving perfusion at the critical end arteriole-capillary-venule level."}, "[2]": {"system": "patients with diabetic polyneuropathy", "type": "in vivo, human", "details": "drug stopped after initial improvement", "text": "The symptoms of motor and sensory loss of diabetic polyneuropathy are ameliorated by acetylcholinesterase inhibitions by increasing concentration of acetylcholine, the principle neurotransmitter of the parasympathetic nervous system. By augmenting the trophic input of nerves of parasympathic nervous system; pain and dyserethesia are diminished and weakness/atrophy of muscles are diminished. The clinical observation in non-Alzheimer's patients is an improvement in motor and sensory function following treatment with effective doses of an acetylcholinesterase inhibitor. Improved blood flow within the microvascular circulation supplying the vasovasorum of the nerves produces the beneficial effect. By restoring blood flow to the vasovasorum of the nerves ischemic pain is relieved and normal function of the nerve is allowed to occur. The process of vasodilatation of the microvascular circulation is mediated through both neuronal and non-neuronal acetylcholine receptors stimulation by acetylcholine. Enhancement in acetylcholine levels is effected through treatment with acetylcholinesterase inhibitors.\nThe physiologic shift favoring vasoconstriction that is associated with diabetes is reversed following administration of an acetylcholinesterase inhibitor allowing perfusion of the microvasculature, restoring blood flow to ischemic motor and sensory nerves damaged by the effects of diabetes."}, "[3]": {"system": "patients with myofascial pain / fibromyalgia", "test": "Patient case histories: fibromyalgia / myofascial pain syndrome", "type": "in vivo, human", "details": "donepizil 5 mg daily", "text": "The present invention provides a method for treating fibromyalgia and myofascial pain syndrome by increasing tissue levels of acetylcholine. Acetylcholine is the neurotransmitter of the parasympathic nervous system. The inventive method increases the relative amount of parasympathetic transmission and thereby facilitates resolution of the pain areas and diminishes the need for narcotics and polypharmacy. The reduction in the use of narcotics, NSAIDs, and tricyclic antidepressants and other medications used for pain having their deleterious side effects is a major benefit. By administration of acetyl cholinesterase inhibitor, the relative concentrations of acetylcholine are increased and available to propagate the impulses of the parasympathic nervous systems and within the non-neuronal acetylcholine receptors diminishing pain and spasms. […] The influence of non-neuronal acetylcholine receptors affected by enhanced levels of acetylcholine produces a reduction in pro-inflammatory mediators and increased blood flow to the nerve fibers involved in pain transmission. The net effect is a reduction in inflammation and improved blood flow to the vasovasorum of the affected nerves reducing the painful sensations."}, "[4]": {"system": "patients with phantom pain", "test": "Patient case histories: phantom pain following amputation", "type": "in vivo, human", "details": "donepizil 5 mg daily", "text": "The present invention further provides a method of treating phantom pain following amputation in both upper and lower extremities. “Phantom pain” is a phenomenon described following amputation of either an upper or lower extremity. The sensation is common following amputation and present with varying degrees of discomfort and debility. A patient with phantom pain is typically treated with antidepressants, Neurontin® (gabapeninand) narcotics to a varying degree. The use of acetylcholinesterase inhibitors decreases the need for narcotics and generally eliminates the need for poly pharmacy improving pain, enhancing wound healing and improved sleep pattern in amputee patients. The dose of acetylcholinesterase inhibitor is titrated to GI (gastrointestinal) tolerance with bowel movement consistency and frequency the determining factors. Treatment with acetylcholinesterase inhibitor increases the available acetylcholine which is the neurotransmitter responsible for activation of the parasysmpathic nervous system appear responsible for Noxious symptoms of phantom pain for discomfort. The present invention provides a method of treating phantom pain associated with amputation of either upper or lower extremity."}, "[5]": {"system": "patients with rheumatologic conditions (RA, SLE, PMR, polymyositis)", "test": "Patient case histories: rheumatological conditions", "type": "in vivo, human", "text": "The use of an acetylcholinesterase inhibitor raises level of acetylcholine by inhibition of cholinesterase. The Increased levels of acetylcholine stimulate neuronal receptors of the parasympathetic nervous system and non-neuronal receptors associated with the intima of blood vessels and leukocytes. This dual effect of improving flow within the microvascular circulation and stabilization of leukocytes and their adhesion to the wall of blood vessel produces the anti-inflammatory effect that is observed with the use of an acetylcholinesterase inhibitor for treatment of rheumatologic diseases."}, "[6]": {"system": "patients with urinary retention", "test": "Patient case histories: urinary retention (voiding trials, post void residuals)"}}, "note": "“Also recorded” adds a separate entry of the source."}
{"smiles": "COc1cc2c(cc1OC)C(=O)C(CC1CCN(Cc3ccccc3)CC1)C2", "note": "(stereo not drawn) [donepizil, 1-benzyl-4->(5,6-dimethoxy-1-indanon)-2-yl methylpiperidine]", "values": [{"measurement": "clinical outcome (vascular edema, ulcers, pain, foot temperature)", "setting": "[1]; donepizil 5 mg daily, 2 weeks to >1 year, single patients, listed as donepezil", "result": "the heel ulcer completely resolved"}, {"measurement": "side effects", "setting": "[1]", "result": "no diarrhea or ulcer symptoms; also recorded: No serious untoward side effects were noted; also recorded: able to tolerate this treatment for the next 6 months; also recorded: No deleterious side effects such a diarrhea or acid reflux were noted; also recorded: no diarrhea or symptoms of gastrointestinal reflux; also recorded: without any untoward side effects; also recorded: without deleterious side affects such a diarrhea or acid reflux; also recorded: absence of any adverse side effects"}, {"measurement": "side effects", "setting": "[1]; listed as donepezil", "result": "without nausea/vomiting or diarrhea symptoms"}, {"measurement": "clinical outcome (ulcers, edema, phantom discomfort)", "setting": "[1]; donepizil increased to 10 mg daily, additional one month (a person)", "result": "near complete healing of the leg ulcers and complete resolution of their edema"}, {"measurement": "course after the drug was withdrawn or lapsed", "setting": "[2]", "result": "progressive decline in their ability and strength over the next 7-10 days"}, {"measurement": "clinical outcome (pain, narcotic use)", "setting": "[3]", "result": "able to eliminate their use of long acting; also recorded: decreased pain complaints in their neck; also recorded: controlled without the use of narcotics or NSAID's; also recorded: improvement in their back pain complaints; also recorded: pain complaints were significantly reduced over a four-week period; also recorded: no recurrence of their back pain or leg cramps; also recorded: no recurrence of cramps"}, {"measurement": "side effects", "setting": "[3]", "result": "no reported GI upset or diarrhea; also recorded: well tolerated; also recorded: no nausea or diarrhea"}, {"measurement": "clinical outcome (phantom pain, sleep)", "setting": "[4]", "result": "dramatic improvement in here phantom discomfort; also recorded: prompt improvement in their pain control; also recorded: phantom pain diminished to the point they no longer required Oxycotin®; also recorded: notable improvement in leg discomfort; also recorded: much improved phantom discomfort and improved sleep; also recorded: no symptoms of vascular insufficiency in their contralateral extremity"}, {"measurement": "clinical outcome (movement, pain, sleep, edema)", "setting": "[5]; donepizil 5 mg orally daily", "result": "return of movement in their feet bilaterally; also recorded: improved sleep pattern and decreased pain; also recorded: edema previously noted in their feet bilaterally resolved; also recorded: became ambulatory; also recorded: improvement in their pain complaints and decreased swelling in their ankles bilaterally"}, {"measurement": "erythrocyte sedimentation rate (ESR), follow up", "setting": "[5]; donepizil 5 mg orally daily, Polymyalgia Rheumatica", "result": "in the normal range"}, {"measurement": "clinical outcome (strength, swelling, vision)", "setting": "[5]; donepizil 10 mg daily, Systemic Lupus Erythematosis", "result": "improved strength in their arms; also recorded: resolved as well as dysesthesias; also recorded: improved but not sufficient to allow for ambulation; also recorded: no return of vision; also recorded: return of movement in their feet bilaterally with decreased lower extremity swelling"}, {"measurement": "post void residuals", "setting": "[5]; donepizil 10 mg, SLE patient with urinary retention", "result": "less than 100 cc"}, {"measurement": "side effects", "setting": "[5]; donepizil 5-10 mg daily", "result": "no symptoms of diarrhea or nausea; also recorded: without incident, adverse side effects or deterioration in their condition; also recorded: no symptoms of diarrhea; also recorded: no untoward side effects"}, {"measurement": "post void residuals (PVR's)", "setting": "[6]; donepizil 5 mg orally daily with Detrol LA 2 mg orally daily", "result": "less than 100 cc"}, {"measurement": "voiding trial", "setting": "[6]; donepizil 5 mg orally daily, 24-48 hours or more before the trial", "result": "able to void without incident; also recorded: successful"}]}
